According to ChEMBL document CHEMBL4229455, “Synthesis and anticancer activity of novel bisindolylhydroxymaleimide derivatives with potent GSK-3 kinase inhibition” (Bioorg Med Chem, 2018):

Legend:
[1] = molecular target: Aurora kinase B (Homo sapiens, UniProt Q96GD4); experiment: Inhibition of recombinant full length human aurora B expressed in baculovirus infected Sf9 insect cells using MBP as substrate in presence of [gamma-33P]ATP
[2] = molecular target: Dual specificity tyrosine-phosphorylation-regulated kinase 1A (Rattus norvegicus, UniProt Q63470); experiment: Inhibition of recombinant rat DYRK1A kinase domain expressed in bacteria using KKISGRLSPIMTEQ as substrate in presence of [gamma-33P]ATP
[3] = Inhibition of domestic porcine brain full length […] using RRKHAAIGSpAYSITA as substrate in presence of [gamma-33P]ATP; parameters: species or system Sus scrofa domesticus
[4] = molecular target: Receptor-interacting serine/threonine-protein kinase 3 (Homo sapiens, UniProt Q9Y572); experiment: Inhibition of recombinant full length human RIPK3 expressed in baculovirus infected Sf9 insect cells assessed as residual activity at 10 uM using MBP as substrate in presence of [gamma-33P]ATP
Sequence of Receptor-interacting serine/threonine-protein kinase 3 (Q9Y572 whole entry, looked up): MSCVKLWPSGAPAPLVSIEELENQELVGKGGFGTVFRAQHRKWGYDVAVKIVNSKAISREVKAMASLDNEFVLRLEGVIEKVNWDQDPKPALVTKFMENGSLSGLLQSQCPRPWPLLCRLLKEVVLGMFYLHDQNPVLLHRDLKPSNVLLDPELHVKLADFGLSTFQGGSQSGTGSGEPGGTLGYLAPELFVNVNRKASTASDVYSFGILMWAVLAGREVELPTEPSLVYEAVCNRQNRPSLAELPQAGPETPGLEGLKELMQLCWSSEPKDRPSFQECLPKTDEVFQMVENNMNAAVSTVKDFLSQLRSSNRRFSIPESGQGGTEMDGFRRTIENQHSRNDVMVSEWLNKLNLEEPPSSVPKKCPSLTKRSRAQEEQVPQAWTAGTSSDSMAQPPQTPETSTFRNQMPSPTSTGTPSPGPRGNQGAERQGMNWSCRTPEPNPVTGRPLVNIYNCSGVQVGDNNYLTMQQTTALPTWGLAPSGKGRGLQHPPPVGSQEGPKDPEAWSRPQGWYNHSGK

[5] = molecular target: CDK9/cyclin T1 (Homo sapiens) (UniProt O60563+P50750); experiment: Inhibition of recombinant full length human CDK9/cyclin T expressed in baculovirus infected Sf9 insect cells assessed as residual activity at 10 uM using YSPTSPSYSPTSPSYSPTSPSKKKK as substrate in presence of [gamma-33P]ATP
[6] = molecular target: Dual specificity tyrosine-phosphorylation-regulated kinase 1A (Rattus norvegicus) (UniProt Q63470); experiment: Inhibition of recombinant rat DYRK1A kinase domain expressed in bacteria assessed as residual activity at 10 uM using KKISGRLSPIMTEQ as substrate in presence of [gamma-33P]ATP
[7] = tested on: CCRF-CEM; experiment: Cytotoxicity against human CCRF-CEM cells assessed as cell growth at 10 uM after 48 hrs by SRB assay relative to control; assay type: functional; conditions: read-out: Activity
[8] = tested on: K562; experiment: Cytotoxicity against human K562 cells assessed as cell growth at 10 uM after 48 hrs by SRB assay relative to control; assay type: functional; conditions: K562, 48 h, read-out: Activity
[9] = tested on: RPMI-8226; experiment: Cytotoxicity against human RPMI8226 cells assessed as cell growth at 10 uM after 48 hrs by SRB assay relative to control; assay type: functional; conditions: RPMI-8226, 48 h, read-out: Activity
[10] = tested on: A549; experiment: Cytotoxicity against human A549 cells assessed as cell growth at 10 uM after 48 hrs by SRB assay relative to control; assay type: functional; conditions: A549, 48 h, read-out: Activity
[11] = tested on: HOP-62; experiment: Cytotoxicity against human HOP62 cells assessed as cell growth at 10 uM after 48 hrs by SRB assay relative to control; assay type: functional; conditions: HOP-62, 48 h, read-out: Activity
[12] = tested on: NCI-H226; experiment: Cytotoxicity against human NCI-H226 cells assessed as cell growth at 10 uM after 48 hrs by SRB assay relative to control; assay type: functional; conditions: NCI-H226, 48 h, read-out: Activity
[13] = tested on: NCI-H522; experiment: Cytotoxicity against human NCI-H522 cells assessed as cell growth at 10 uM after 48 hrs by SRB assay relative to control; assay type: functional; conditions: NCI-H522, 48 h, read-out: Activity
[14] = tested on: HCT-116; experiment: Cytotoxicity against human HCT116 cells assessed as cell growth at 10 uM after 48 hrs by SRB assay relative to control; assay type: functional; conditions: HCT-116, 48 h, read-out: Activity
[15] = tested on: SF-268; experiment: Cytotoxicity against human SF268 cells assessed as cell growth at 10 uM after 48 hrs by SRB assay relative to control; assay type: functional; conditions: SF-268, 48 h, read-out: Activity
[16] = tested on: U-251; experiment: Cytotoxicity against human U251 cells assessed as cell growth at 10 uM after 48 hrs by SRB assay relative to control; assay type: functional; conditions: U-251, 48 h, read-out: Activity
[17] = tested on: LOX IMVI; experiment: Cytotoxicity against human LOXIMVI cells assessed as cell growth at 10 uM after 48 hrs by SRB assay relative to control; assay type: functional; conditions: read-out: Activity
[18] = tested on: M14; experiment: Cytotoxicity against human M14 cells assessed as cell growth at 10 uM after 48 hrs by SRB assay relative to control; assay type: functional; conditions: M14, 48 h, read-out: Activity
[19] = tested on: UACC-257; experiment: Cytotoxicity against human UACC257 cells assessed as cell growth at 10 uM after 48 hrs by SRB assay relative to control; assay type: functional; conditions: UACC-257, 48 h, read-out: Activity
[20] = tested on: OVCAR-4; experiment: Cytotoxicity against human OVCAR4 cells assessed as cell growth at 10 uM after 48 hrs by SRB assay relative to control; assay type: functional; conditions: OVCAR-4, 48 h, read-out: Activity
[21] = tested on: OVCAR-5; experiment: Cytotoxicity against human OVCAR5 cells assessed as cell growth at 10 uM after 48 hrs by SRB assay relative to control; assay type: functional; conditions: OVCAR-5, 48 h, read-out: Activity
[22] = tested on: A498; experiment: Cytotoxicity against human A498 cells assessed as cell growth at 10 uM after 48 hrs by SRB assay relative to control; assay type: functional; conditions: A498, 48 h, read-out: Activity
[23] = tested on: CAKI-1; experiment: Cytotoxicity against human Caki1 cells assessed as cell growth at 10 uM after 48 hrs by SRB assay relative to control; assay type: functional; conditions: CAKI-1, 48 h, read-out: Activity
[24] = tested on: SN12C; experiment: Cytotoxicity against human SN12C cells assessed as cell growth at 10 uM after 48 hrs by SRB assay relative to control; assay type: functional; conditions: read-out: Activity
[25] = tested on: TK-10; experiment: Cytotoxicity against human TK10 cells assessed as cell growth at 10 uM after 48 hrs by SRB assay relative to control; assay type: functional; conditions: TK-10, 48 h, read-out: Activity
[26] = tested on: DU-145; experiment: Cytotoxicity against human DU145 cells assessed as cell growth at 10 uM after 48 hrs by SRB assay relative to control; assay type: functional; conditions: DU-145, 48 h, read-out: Activity
[27] = tested on: NCI-H322M; experiment: Cytotoxicity against human NCI-H322M cells assessed as cell growth at 10 uM after 48 hrs by SRB assay relative to control; assay type: functional; conditions: read-out: Activity
[28] = tested on: COLO 205; experiment: Cytotoxicity against human COLO205 cells assessed as cell growth at 10 uM after 48 hrs by SRB assay relative to control; assay type: functional; conditions: COLO 205, 48 h, read-out: Activity
[29] = tested on: HOP-92; experiment: Cytotoxicity against human HOP92 cells assessed as cell growth at 10 uM after 48 hrs by SRB assay relative to control; assay type: functional; conditions: HOP-92, 48 h, read-out: Activity
[30] = tested on: HL-60(TB); experiment: Cytotoxicity against human HL-60(TB) cells assessed as cell growth at 10 uM after 48 hrs by SRB assay relative to control; assay type: functional; conditions: HL-60, 48 h, read-out: Activity
[31] = tested on: SR; experiment: Cytotoxicity against human SR cells assessed as cell growth at 10 uM after 48 hrs by SRB assay relative to control; assay type: functional; conditions: read-out: Activity
[32] = tested on: MDA-MB-435; experiment: Cytotoxicity against human MDA-MB-435 cells assessed as cell growth at 10 uM after 48 hrs by SRB assay relative to control; assay type: functional; conditions: MDA-MB-435, 48 h, read-out: Activity

Sequence of Aurora kinase B (Q96GD4 whole entry, the tested form may be a part): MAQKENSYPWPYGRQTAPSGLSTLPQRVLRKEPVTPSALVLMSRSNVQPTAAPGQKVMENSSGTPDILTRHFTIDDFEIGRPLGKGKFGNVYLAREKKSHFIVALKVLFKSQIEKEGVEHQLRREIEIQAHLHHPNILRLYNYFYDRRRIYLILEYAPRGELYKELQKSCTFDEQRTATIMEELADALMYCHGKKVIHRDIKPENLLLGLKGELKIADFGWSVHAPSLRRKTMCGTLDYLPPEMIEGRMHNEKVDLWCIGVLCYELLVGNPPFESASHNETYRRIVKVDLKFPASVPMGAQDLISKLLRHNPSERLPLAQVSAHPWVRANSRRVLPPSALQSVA

Row | SMILES | IC50 [1] [µM] | IC50 [2] [µM] | IC50 [3] [µM] | Activity [4] [%] | Activity [5] [%] | Activity [6] [%] | growth at 10 µM [9] [%] | growth at 10 µM [10] [%] | growth at 10 µM [11] [%] | growth at 10 µM [12] [%] | growth at 10 µM [13] [%] | growth at 10 µM [14] [%] | growth at 10 µM [15] [%] | growth at 10 µM [16] [%] | growth at 10 µM [17] [%] | growth at 10 µM [18] [%] | growth at 10 µM [19] [%] | growth at 10 µM [20] [%] | growth at 10 µM [21] [%] | growth at 10 µM [22] [%] | also measured
1 | N#CCCCCCn1cc(C2=C(c3cn(CCCCCC#N)c4ccccc34)C(=O)N(O)C2=O)c2ccccc21 | > 10 | > 10 | > 10 | 109 | 55 | 38 | 39.1 | 51 to 73.6 | 45 to 66.5 | 44 to 70 | 1 to 54.9 | 21 to 63.3 | 50 to 80.6 | 25 to 82.2 | 19 to 30.5 | 28 to 73.4 | 56 to 82.1 | 91.6 | 95 to 106 | 16 to 69.2 | growth at 10 µM [7]: 8 to 54.2%; growth at 10 µM [8]: 15 to 33.9%; growth at 10 µM [23]: 65 to 67%; growth at 10 µM [24]: 47 to 88.2%; growth at 10 µM [25]: 70 to 84.2%; growth at 10 µM [26]: 80 to 101%; growth at 10 µM [27]: 45 to 92.3%; growth at 10 µM [28]: 74 to 91.7%; growth at 10 µM [29]: 25%
2 | O=C(O)CCCCCn1cc(C2=C(c3c[nH]c4ccccc34)C(=O)N(O)C2=O)c2ccccc21 | > 10 | 2 | > 10 | 100 | 19 | 24 | 101 | 98.2 | 86.8 | 92.5 | 88.3 | 98.9 | 98.3 | 102 | 80.4 | 92.9 | 111 | 113 | 106 | 88.5 | growth at 10 µM [7]: 96.2%; growth at 10 µM [30]: 108%; growth at 10 µM [8]: 94.8%; growth at 10 µM [31]: 100%; growth at 10 µM [32]: 102%; growth at 10 µM [23]: 92.2%; growth at 10 µM [24]: 105%; growth at 10 µM [25]: 99%; growth at 10 µM [26]: 104%; growth at 10 µM [27]: 101%; growth at 10 µM [28]: 102%
3 | N#CCCCCCn1cc(C2=C(c3cn(CCCCCC#N)c4ccccc34)C(=O)NC2=O)c2ccccc21 | > 10 | 0.62 | > 10 | 100 | 9 | 9 | 86.8 | 85.6 | 118 | 80.4 | 88.7 | 65.9 | 107 | 83.8 | 69.5 | 125 | 136 | 81.2 | 128 | 54.5 | growth at 10 µM [7]: 73.5%; growth at 10 µM [32]: 105%; growth at 10 µM [23]: 82.5%; growth at 10 µM [24]: 87.7%; growth at 10 µM [25]: 101%; growth at 10 µM [26]: 100%; growth at 10 µM [27]: 103%; growth at 10 µM [28]: 73.8%; growth at 10 µM [29]: 142%
4 | Cn1cc(C2=C(c3cn(C)c4ccccc34)C(=O)N(O)C2=O)c2ccccc21 | > 10 | > 10 | > 10 | 100 | 38 | 81 | 79.3 | 87.8 | 97 | 88.7 | 98.4 | 99.9 | 112 | 91.4 | 72.8 | 105 | 88.3 | 103 | 105 | 85.8 | growth at 10 µM [30]: 87.1%; growth at 10 µM [8]: 100%; growth at 10 µM [31]: 75.4%; growth at 10 µM [32]: 94.9%; growth at 10 µM [23]: 90.1%; growth at 10 µM [24]: 94.5%; growth at 10 µM [25]: 118%; growth at 10 µM [26]: 123%; growth at 10 µM [27]: 103%; growth at 10 µM [28]: 104%; growth at 10 µM [29]: 80.8%
